Data on ten molecules can be found in patent US11939340B2, “CDK inhibitors and their use as pharmaceuticals” (Prelude Therapeutics Incorporated, priority 2022, dated 2024).

Some results are limits rather than exact numbers.

For experiment [1], the system named is pRB in OVCAR3 cells. Briefly: pRB ICW Assay in OVCAR3 Cells. The class given is cell-based. To be noted: Homo sapiens, OVCAR-3, incubated with compound for 2 hours, read-out: OVCAR3 p-RB ICW IC50. In short, it runs like this:
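OVCAR3 cells seeded overnight, then exposed for 2 h at 37 °C to a 9-point half-log compound dilution series in duplicate; 10 μM reference compound defined maximum inhibition. Fixed, permeabilised cells stained in-cell western style with anti-phospho-RB antibody plus DRAQ5 nuclear stain; fluorescence read at 700 and 800 nm.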

Experiment [2] concerns the target CDK2/Cyclin E2 (Homo sapiens, UniProt P24941). Briefly: CDK2/CyclinE2 Enzymatic Activity Assay (TR-FRET). It is filed as biochemical. To be noted: CDK2/CyclinE2 1 nM, ATP 1 mM, read-out: CDK2_El IC50. The procedure, abridged: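 TR-FRET kinase assay with insect-cell CDK2/Cyclin E2 (1 nM) phosphorylating ULight-4E-BP1 (50 nM) at 1 mM ATP in HEPES pH 7.4 buffer; 9-dose 3-fold series preincubated 20 min, reaction started with 10 mM MgCl2, 45 min at 37 °C. EDTA quench, Eu-anti-P-4E-BP1 detection; IC50 from 4-parameter fit.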
In general terms: TR-FRET usually uses a lanthanide donor and a delayed reading to cut background.

The target of experiment [3] is T1, CDK4/Cyclin D1 (Homo sapiens, UniProt P11802).
T1 construct: purchased ProQinase; host or cells: insect cell
Briefly: CDK4/CyclinD1 Enzymatic Activity Assay (TR-FRET). It is filed as biochemical. To be noted: CDK4/CyclinD1 1 nM, ATP 2 mM, read-out: CDK4_D1 IC50. In short, it runs like this: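 Insect-cell-expressed CDK4/Cyclin D1 (1 nM) phosphorylated ULight-4E-BP1 (100 nM) with 2 mM ATP in HEPES pH 7.4 buffer with TCEP, after 20 min compound preincubation; 10 mM MgCl2 started the reaction, run 45 min at 37 °C. EDTA/Eu-anti-phospho-4E-BP1 TR-FRET readout; 9-point IC50 by four-parameter fit.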

T1 sequence (P11802 whole entry): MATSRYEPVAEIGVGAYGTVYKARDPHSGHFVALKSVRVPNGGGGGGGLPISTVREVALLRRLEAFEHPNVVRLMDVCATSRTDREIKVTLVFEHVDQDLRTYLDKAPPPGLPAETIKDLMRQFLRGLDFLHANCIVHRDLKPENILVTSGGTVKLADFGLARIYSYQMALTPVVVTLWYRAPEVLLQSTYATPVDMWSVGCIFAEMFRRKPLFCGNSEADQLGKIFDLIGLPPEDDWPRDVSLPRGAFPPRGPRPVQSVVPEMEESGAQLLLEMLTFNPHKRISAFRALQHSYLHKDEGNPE
T1 sequence (P24385 whole entry partner): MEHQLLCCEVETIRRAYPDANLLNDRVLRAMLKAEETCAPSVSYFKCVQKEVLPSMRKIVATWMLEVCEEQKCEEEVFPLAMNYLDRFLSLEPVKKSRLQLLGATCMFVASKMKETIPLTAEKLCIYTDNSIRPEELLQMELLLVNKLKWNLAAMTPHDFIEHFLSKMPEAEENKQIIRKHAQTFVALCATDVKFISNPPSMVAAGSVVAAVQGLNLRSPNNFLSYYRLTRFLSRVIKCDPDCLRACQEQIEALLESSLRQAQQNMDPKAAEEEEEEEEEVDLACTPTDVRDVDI

For orientation: IC50 means the concentration at which inhibition is half-maximal. In the case of `CS(=O)(=O)N1CCC(Nc2ncc(C(F)(F)F)c(-c3cc4c(s3)C3(C5CCC5)CCCN3C4=O)n2)CC1` (stereo not drawn) [Example 23, 8a-Cyclobutyl-2-(2-((1-(methylsulfonyl)piperidin-4-yl)amino)-5-(trifluoromethyl)pyrimidin-4-yl)-6,7,8,8a-tetrahydro-4H-thieno[2,3-a]pyrrolizin-4-one], the values for the half-maximal inhibitory concentration (IC50) in experiment [1], in experiment [2] and in experiment [3] were 100 to 500 nM, no more than 100 nM and no more than 100 nM, respectively.
For `CCC12CCCN1C(=O)c1cc(-c3nc(NC4CCN(S(C)(=O)=O)CC4)ncc3Cl)sc12` (stereo not drawn) [Example 27, 2-(5-Chloro-2-((1-(methylsulfonyl)piperidin-4-yl)amino)pyrimidin-4-yl)-8a-ethyl-6,7,8,8a-tetrahydro-4H-thieno[2,3-a]pyrrolizin-4-one], the IC50 in experiment [1], in experiment [2] and in experiment [3] was no more than 100 nM in each case.
Consider `CS(=O)(=O)N1CCC(Nc2ncc(C(F)(F)F)c(-c3cc4c(s3)C3(CO)CCCN3C4=O)n2)CC1` (stereo not drawn) [Example 17, 8a-(Hydroxymethyl)-2-(2-((1-(methylsulfonyl)piperidin-4-yl)amino)-5-(trifluoromethyl)pyrimidin-4-yl)-6,7,8,8a-tetrahydro-4H-thieno[2,3-a]pyrrolizin-4-one], for which the results for the IC50 in experiment [1], in experiment [2] and in experiment [3] were 100 to 500 nM, no more than 100 nM and no more than 100 nM, respectively.
Regarding `CCC12CC(N)CN1C(=O)c1cc(-c3nc(NC4CCN(S(C)(=O)=O)CC4)ncc3C(F)(F)F)sc12` (stereo not drawn) [Example 40, 7-Amino-8a-ethyl-2-(2-((1-(methylsulfonyl)piperidin-4-yl)amino)-5-(trifluoromethyl)pyrimidin-4-yl)-6,7,8,8a-tetrahydro-4H-thieno[2,3-a]pyrrolizin-4-one], the IC50 in experiment [1], in experiment [2] and in experiment [3] was no more than 100 nM in each case.
`CCC12CC(O)CN1C(=O)c1cc(-c3nc(NC4CCN(S(=O)(=O)c5cnn(C)c5)CC4)ncc3C(F)(F)F)sc12` (stereo not drawn) [Example 36, 8a-Ethyl-7-hydroxy-2-(2-((1-((1-methyl-1H-pyrazol-4-yl)sulfonyl)piperidin-4-yl)amino)-5-(trifluoromethyl)pyrimidin-4-yl)-6,7,8,8a-tetrahydro-4H-thieno[2,3-a]pyrrolizin-4-one]: the IC50 in experiment [1], in experiment [2] and in experiment [3] was no more than 100 nM in each case.
`CCC12CCCN1C(=O)c1cc(-c3nc(NC4CCN(S(C)(=O)=O)CC4)ncc3F)sc12` (stereo not drawn) [Example 15, 8a-Ethyl-2-[5-fluoro-2-[(1-methylsulfonylpiperidin-4-yl)amino]pyrimidin-4-yl]-7,8-dihydro-6H-thieno[2,3-a]pyrrolizin-4-one]: the IC50 in experiment [1], in experiment [2] and in experiment [3] was no more than 100 nM each time.
In the case of `CCC12CC(F)(F)CN1C(=O)c1cc(-c3nc(NC4CCN(S(C)(=O)=O)CC4)ncc3C(F)(F)F)sc12` (stereo not drawn) [Example 32, 8a-Ethyl-7,7-difluoro-2-(2-((1-(methylsulfonyl)piperidin-4-yl)amino)-5-(trifluoromethyl)pyrimidin-4-yl)-6,7,8,8a-tetrahydro-4H-thieno[2,3-a]pyrrolizin-4-one], the IC50 in experiment [1], in experiment [2] and in experiment [3] was no more than 100 nM throughout.
Regarding `CS(=O)(=O)N1CCC(Nc2ncc(C(F)(F)F)c(-c3cc4c(s3)C3(C5CC(O)C5)CCCN3C4=O)n2)CC1` (stereo not drawn) [Example 25, 8a-(3-Hydroxycyclobutyl)-2-(2-((1-(methylsulfonyl)piperidin-4-yl)amino)-5-(trifluoromethyl)pyrimidin-4-yl)-6,7,8,8a-tetrahydro-4H-thieno[2,3-a]pyrrolizin-4-one], the IC50 in experiment [1], in experiment [2] and in experiment [3] was no more than 100 nM in each case.
Take `CCC12CC(NC)CN1C(=O)c1cc(-c3nc(N[C@@H]4CCN(S(C)(=O)=O)C[C@H]4F)ncc3C(F)(F)F)sc12` (stereo partly drawn) [Example 47, 8a-Ethyl-2-(2-(((3R,4R)-3-fluoro-1-(methylsulfonyl)piperidin-4-yl)amino)-5-(trifluoromethyl)pyrimidin-4-yl)-7-(methylamino)-6,7,8,8a-tetrahydro-4H-thieno[2,3-a]pyrrolizin-4-one]: the IC50 in experiment [1], in experiment [2] and in experiment [3] was no more than 100 nM in each case.
On to `CCC12CC(NC)CN1C(=O)c1cc(-c3nc(N[C@H]4CCN(S(C)(=O)=O)C[C@H]4F)ncc3C(F)(F)F)sc12` (stereo partly drawn) [Example 48, 8a-Ethyl-2-(2-(((3R,4S)-3-fluoro-1-(methylsulfonyl)piperidin-4-yl)amino)-5-(trifluoromethyl)pyrimidin-4-yl)-7-(methylamino)-6,7,8,8a-tetrahydro-4H-thieno[2,3-a]pyrrolizin-4-one], for which the IC50 in experiment [1], in experiment [2] and in experiment [3] was no more than 100 nM each time.
